Assay results from patent US11958865B1, “Leucine-rich repeat kinase 2 (LRRK2) inhibitors” (H. Lundbeck A/S, priority 2022, dated 2024).

Key:
LRRK2 G2019S = LRRK2 G2019S (Homo sapiens (Human), UniProt Q5S007, G2019S); assay: LRRK2 G2019S LanthaScreen TR-FRET kinase activity assay; type: biochemical; conditions: 250 pM kinase, 1.3 mM ATP, n≥2 tests
Description: (§1) LRRK2 kinase activity was measured using a LanthaScreen kinase activity assay available from Invitrogen (Life Technologies Corporation). […] The phosphorylated peptide is recognized by a terbium-labelled phospho-specific anti-LRRKtide antibody (pLRRKtide antibody), obtainable from Life Technologies Corporation) and, subsequently, the phosphorylated LRRKtide can be quantified by the extent of TR-FRET between the terbium donor and fluorescein acceptor.
(§2) As discussed above, this mutation increases the kinase activity relative to the wild type. The kinase reactions were performed in a 20 μL volume in 384-well plates. The kinase reaction buffer consisted of 50 mM Tris pH 8.5, 0.01% BRIJ-35, 10 mM MgCl2, 1 mM EGTA, and 2 mM DTT.
(§3) The mixture was further incubated for 30 minutes at RT. TR-FRET was measured by excitation of the terbium-donor with 340 nm light and subsequent (delay time […]) measurement of terbium and fluorescein emission at 495 nm and 520 nm, respectively, over a time window of […]. The measurement was repeated 30 times for fluorescein and 30 times for terbium emission with a […] between repeats. TR-FRET measurements were performed on a Biotek Synergy plate. The TR-FRET signal was calculated as the emission-ratio at 520 nm over 495 nm.
(§4) Test compound potency (IC50) was estimated by nonlinear regression using the sigmoidal dose-response (variable slope) using Xlfit 4 (IDBS, Guildford, Surrey, UK, model 205). Were the IC50 could not be determined the % inhibition at the highest tested concentration is given by equation 1. Equation (1): y=(A+((B−A)/(1+((C/x)^D)))) (1)
(§5) where y is the normalized TR-TRET ratio measurement for a given concentration of test compound, x is the concentration of test compound, A is the estimated efficacy (% inhibition) at infinite compound dilution, and B is the maximal efficacy (% inhibition). C is the IC50 value and D is the Hill slope coefficient. IC50 estimates were obtained from independent experiment and the logarithmic average was calculated.

LRRK2 WT [1] = target: T1, LRRK2 WT (Homo sapiens (Human), UniProt Q5S007); assay: LRRK2 wild-type ADP-Glo kinase assay; type: biochemical; conditions: read-out: LRRK2 WT ADPGlo IC50
Description: LRRK2 kinase activity was measured using an ADP-Glo kinase assay from Promega Corporation. The assay is a homogeneous luminescence-based assay that measures ADP formed from a kinase reaction. The ADP is converted into ATP, which is used to generate light in a luciferase reaction. The luminescence generated correlates with kinase activity.
The LRRK2 kinase was obtained from Invitrogen (Life Technologies Corporation) and comprises residue 970 to 2527 of the full length human wild-type LRRK2 kinase. The kinase reactions were performed in a 10 μL volume in 384-well plates. The kinase reaction buffer consisted of 50 mM Tris pH 8.5, 0.01% BRIJ-35, 10 mM MgCl2, 1 mM EGTA, and 2 mM DTT.
The reaction mixture (10 μl total volume) was incubated for 3 hours at room temperature (RT, ca. 25° C.), before the reaction was terminated by addition of 10 μl ADP-Glo reagent. The mixture was further incubated for 60 minutes at RT before addition of 20 μl Kinase detection reagent from the ADP-Glo assay kit. Luminescence signal was measure on a BMG Labtech Pherastar FSX multimode microplate reader. The signal integration time was 0.5 s.
Test compound potency (Ki,app) was estimated by nonlinear regression using the tight-binding fit model in GeneData Screener (GeneData AG). In cases where the Ki,app could not be determined, the % inhibition at the highest tested concentration is reported. The tight-binding fit model is given by euquation (2). […] Ki,app is the apparent dissociation constant of the inhibitor. The IC50 can be calculated as given by equation (3). Equation (3): IC50=Ki,app+[E]/2 (3) IC50 estimates were obtained from independent experiment and the logarithmic average was calculated.

LRRK2 WT [2] = target: T1, LRRK2 WT; assay: LRRK2 wild-type LanthaScreen TR-FRET kinase activity assay; type: biochemical; conditions: 1 nM kinase, 1.3 mM ATP, n≥2 tests
Description: as §1, §2, §3, §4, §5

[3] = Hepatocyte intrinsic clearance assay; type: in vitro ADME, Human; conditions: pooled donor, cryopreserved hepatocytes, pH 7.4; human hepatocytes 1×10^6/mL; 0.05 μM; 2 h at 37° C.
Description: Test compounds (final concentration 0.05 μM, 0.05% organic) were incubated for 2 h at 37° C., with shaking, in supplemented Leibovitz L-15 media (pH 7.4) containing commercially sourced, pooled donor, cryopreserved hepatocytes (final concentration 1×10^6 hepatocytes/mL). The CLint reactions (350 μL) were initiated by addition of test compound. Aliquots (25 μL) were taken at 1, 5, 10, 15, 30, 60, 90 and 120 minutes and then protein crashed with ice-cold acetonitrile containing internal standard (150 μL) then centrifuged (1960 g for 20 minutes at 4° C.). Supernatant was diluted (1:4) with deionized water then analyzed by liquid chromatography (LC)-tandem mass spectrometry (MS/MS).

[4] = Hepatic microsomal intrinsic clearance assay; type: in vitro ADME; conditions: pooled liver microsomes, pH 7.4; liver microsomes 0.5 mg/mL; 1 μM; NADPH; 1 hour at 37° C.; LLOQ 0.36 L/h/kg
Method in brief: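 Compounds at 1 μM final were incubated with pooled liver microsomes (0.5 mg/mL) in phosphate buffer pH 7.4 at 37 °C for up to 60 min. Samples taken at 0, 5, 10, 20, 30 and 60 min were quenched with acetonitrile and analysed by LC-MS/MS.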

T1 sequence (Q5S007 970-2527): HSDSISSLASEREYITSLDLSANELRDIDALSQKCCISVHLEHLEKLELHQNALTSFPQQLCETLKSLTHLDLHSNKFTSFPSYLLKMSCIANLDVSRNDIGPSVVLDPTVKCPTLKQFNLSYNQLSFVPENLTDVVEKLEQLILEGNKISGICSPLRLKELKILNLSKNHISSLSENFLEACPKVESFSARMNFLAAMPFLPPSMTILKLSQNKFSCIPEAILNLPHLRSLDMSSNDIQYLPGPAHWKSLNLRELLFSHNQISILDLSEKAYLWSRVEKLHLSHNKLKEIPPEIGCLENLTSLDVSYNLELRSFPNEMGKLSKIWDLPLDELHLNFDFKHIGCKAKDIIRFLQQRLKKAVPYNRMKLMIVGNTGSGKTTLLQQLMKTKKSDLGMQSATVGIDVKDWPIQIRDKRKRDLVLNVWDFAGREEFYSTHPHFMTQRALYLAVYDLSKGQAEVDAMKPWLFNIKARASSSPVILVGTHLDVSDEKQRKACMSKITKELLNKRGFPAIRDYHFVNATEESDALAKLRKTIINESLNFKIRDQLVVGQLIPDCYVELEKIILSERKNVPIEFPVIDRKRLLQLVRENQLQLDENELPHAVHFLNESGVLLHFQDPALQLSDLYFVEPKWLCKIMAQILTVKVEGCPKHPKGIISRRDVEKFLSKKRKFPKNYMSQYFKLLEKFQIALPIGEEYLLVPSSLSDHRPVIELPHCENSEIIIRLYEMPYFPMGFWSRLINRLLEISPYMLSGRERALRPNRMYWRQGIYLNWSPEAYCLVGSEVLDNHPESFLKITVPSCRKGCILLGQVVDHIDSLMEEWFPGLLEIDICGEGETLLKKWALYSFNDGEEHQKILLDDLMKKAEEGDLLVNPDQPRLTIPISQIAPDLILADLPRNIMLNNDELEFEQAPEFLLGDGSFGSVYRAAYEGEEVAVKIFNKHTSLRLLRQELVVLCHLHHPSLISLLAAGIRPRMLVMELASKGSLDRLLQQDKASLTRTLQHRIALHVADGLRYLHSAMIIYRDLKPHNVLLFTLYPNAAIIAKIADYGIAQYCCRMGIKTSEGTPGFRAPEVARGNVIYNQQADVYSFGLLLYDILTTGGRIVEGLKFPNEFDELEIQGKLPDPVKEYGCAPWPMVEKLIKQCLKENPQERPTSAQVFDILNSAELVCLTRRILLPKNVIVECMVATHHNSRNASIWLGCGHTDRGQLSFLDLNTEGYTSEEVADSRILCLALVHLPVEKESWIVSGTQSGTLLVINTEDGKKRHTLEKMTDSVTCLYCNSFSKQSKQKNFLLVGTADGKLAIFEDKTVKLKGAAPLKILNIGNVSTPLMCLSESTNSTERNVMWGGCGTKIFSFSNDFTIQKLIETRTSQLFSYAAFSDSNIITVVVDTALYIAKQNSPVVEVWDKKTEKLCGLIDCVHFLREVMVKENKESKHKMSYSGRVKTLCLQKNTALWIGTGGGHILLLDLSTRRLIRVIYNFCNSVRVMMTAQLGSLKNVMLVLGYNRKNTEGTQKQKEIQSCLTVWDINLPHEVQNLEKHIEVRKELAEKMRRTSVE
Chain of LRRK2 G2019S (Q5S007 970-2527 G2019S): as the sequence (Q5S007 970-2527) above, with G1050S counted along it

- IC50 (LRRK2 G2019S): 0.35 nM
- IC50 (LRRK2 WT [1]): 0.49 nM
- IC50 (LRRK2 WT [2]): 0.95 nM
- CLint scaled at 0.05 μM [3]: 17.7 mL/min/kg
- CLint scaled at 1 μM [4]: 12.5 mL/min/kg
Compound: [2H]C([2H])([2H])Oc1ncccc1-n1nc2c(c1C)Nc1ncc3c(Cl)nn(c3n1)CCCO2 [Example 24, 8-Chloro-2-(2-(methoxy-d3)pyridin-3-yl)-3-methyl-2,4,12,13-tetrahydro-11H-5,7-(azenometheno)dipyrazolo[3,4-b:5′,1′-g][1]oxa[4,6,8]triazacycloundecine]
